Laboratory results reported in patent US8815872B2, “Macrocyclics pyrimidines as aurora kinase inhibitors” (Merck Patent GmbH, priority 2008, dated 2014).

Columns and labels:
Assay in all cases: Other kinases, inhibition at 1 μM (Table 3)
Format in all cases: biochemical
AMPK = system: AMPK
Protocol: (§1) The Aurora and other kinase assays described here were performed on two Caliper Life Sciences systems, the LC3000 and the Desktop Profiler. These provide data on enzyme activity via measurement of the relative amounts of phosphorylated or unphosphorylated fluorescently labelled substrate peptide at the end of an enzymatic reaction. These different states of peptide are resolved by applying a potential difference across the sample. The presence of a charged phosphate group on the product (as opposed to the substrate) causes a different peptide mobility between the two peptides. This is visualized by excitation of a fluorescent label on the substrate and product peptides and represented as peaks within the analysis software.
(§2) The Desktop Profiler utilizes the same principal as the LC 3000 for calculating percentage conversion of a substrate to product. Caliper Life Sciences provided proprietary flash frozen pre-made 384 well plates containing selected kinases. Each column in the 384 well plate contained a particular selected kinase. A second plate, the ‘substrate plate’ contained a mix of fluorescently labeled peptide substrate and ATP. These were arranged in columns so that transfer for substrate plate to enzyme plate provided the correct enzyme with the correct substrate/ATP concentration.
(§3) Compounds were added to a thawed enzyme plate in the desired format, in single concentrations. Reactions were initiated by transfer of the ubstrate/ATP mix from the substrate plate. The enzyme plate was incubated for 90 mins at 25 °C. The reaction was stopped by addition of […] of Stop Buffer (100 mM HEPES pH 7.5, 0.015% Brij-35, 10 mM EDTA (Sigma, E7889)).
(§4) Plates were read in a manner identical to that of the LC3000, and the ratio between substrate and product peaks provided the activity of the enzyme in that well. This was best represented by a plate heat map which colors each well by percent inhibition as compared to positive and negative controls (no inhibitors and no ATP respectively).

CAMKI = target: T1, CAMKI (Homo sapiens, UniProt Q14012)
T1 construct: purchased Caliper Life Sciences
Protocol: as §1, §2, §3, §4

CAMKKb = target: T2, CAMKKb (Homo sapiens, UniProt Q96RR4)
T2 construct: purchased Caliper Life Sciences
Protocol: as §1, §2, §3, §4

CDK2/cyclin A = target: T3, CDK2/cyclin A (Homo sapiens, UniProt P24941)
T3 construct: purchased Caliper Life Sciences
Protocol: as §1, §2, §3, §4

CHK2 = target: T4, CHK2 (Homo sapiens, UniProt O96017)
T4 construct: purchased Caliper Life Sciences
T4 sequence (O96017 whole entry, species assumed): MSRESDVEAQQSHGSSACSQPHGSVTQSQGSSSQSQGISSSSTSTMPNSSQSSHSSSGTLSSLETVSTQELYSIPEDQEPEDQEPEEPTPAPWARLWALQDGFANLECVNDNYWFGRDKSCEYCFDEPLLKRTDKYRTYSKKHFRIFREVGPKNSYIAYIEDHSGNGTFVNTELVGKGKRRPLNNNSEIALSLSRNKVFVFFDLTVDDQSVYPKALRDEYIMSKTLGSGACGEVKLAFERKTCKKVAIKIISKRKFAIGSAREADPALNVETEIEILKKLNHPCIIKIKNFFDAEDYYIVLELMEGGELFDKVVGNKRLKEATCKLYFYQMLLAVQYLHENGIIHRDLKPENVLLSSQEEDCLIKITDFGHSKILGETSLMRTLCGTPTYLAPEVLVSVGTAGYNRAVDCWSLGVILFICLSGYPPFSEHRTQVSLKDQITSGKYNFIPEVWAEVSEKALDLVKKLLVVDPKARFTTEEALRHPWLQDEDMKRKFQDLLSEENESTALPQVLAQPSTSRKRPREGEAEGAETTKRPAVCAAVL
Protocol: as §1, §2, §3, §4

CK2 = system: CK2
Protocol: as §1, §2, §3, §4

EphA2 = target: T5, EphA2 (Homo sapiens, UniProt P29317)
T5 construct: purchased Caliper Life Sciences
Protocol: as §1, §2, §3, §4

IKK-beta = target: T6, IKK-beta (Homo sapiens, UniProt O14920)
T6 construct: purchased Caliper Life Sciences
Protocol: as §1, §2, §3, §4

IKK-epsilon = target: T7, IKK-epsilon (Homo sapiens, UniProt Q14164)
T7 construct: purchased Caliper Life Sciences
Protocol: as §1, §2, §3, §4

IR = target: T8, IR (Homo sapiens, UniProt P06213)
T8 construct: purchased Caliper Life Sciences
Protocol: as §1, §2, §3, §4

IRR = target: T9, IRR (Homo sapiens, UniProt P14616)
T9 construct: purchased Caliper Life Sciences
Protocol: as §1, §2, §3, §4

JNK1-alpha-1 = target: T10, JNK1-alpha-1 (Homo sapiens, UniProt P45983)
T10 construct: purchased Caliper Life Sciences
T10 sequence (P45983 1-384 isoform P45983-2, species assumed): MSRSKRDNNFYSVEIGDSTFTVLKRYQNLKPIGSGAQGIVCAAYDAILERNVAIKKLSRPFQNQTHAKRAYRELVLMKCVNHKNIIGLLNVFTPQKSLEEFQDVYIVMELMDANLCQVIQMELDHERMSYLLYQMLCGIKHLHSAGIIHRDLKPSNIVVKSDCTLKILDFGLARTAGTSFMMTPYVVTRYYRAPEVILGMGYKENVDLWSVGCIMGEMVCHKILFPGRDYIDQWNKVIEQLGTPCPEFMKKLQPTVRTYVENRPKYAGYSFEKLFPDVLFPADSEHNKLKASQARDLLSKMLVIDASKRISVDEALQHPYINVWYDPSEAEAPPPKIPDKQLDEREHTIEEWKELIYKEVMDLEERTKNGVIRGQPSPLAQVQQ
Protocol: as §1, §2, §3, §4

MAPK1 = system: MAPK1
Protocol: as §1, §2, §3, §4

MAPK2 = target: T11, MAPK2 (Homo sapiens, UniProt P28482)
T11 construct: purchased Caliper Life Sciences
Protocol: as §1, §2, §3, §4

MKK1 = target: T12, MKK1 (Homo sapiens, UniProt Q02750)
T12 construct: purchased Caliper Life Sciences
Protocol: as §1, §2, §3, §4

MNK-1 = target: T13, MNK-1 (Homo sapiens, UniProt Q9BUB5)
T13 construct: purchased Caliper Life Sciences
T13 sequence (Q9BUB5 whole entry, species assumed): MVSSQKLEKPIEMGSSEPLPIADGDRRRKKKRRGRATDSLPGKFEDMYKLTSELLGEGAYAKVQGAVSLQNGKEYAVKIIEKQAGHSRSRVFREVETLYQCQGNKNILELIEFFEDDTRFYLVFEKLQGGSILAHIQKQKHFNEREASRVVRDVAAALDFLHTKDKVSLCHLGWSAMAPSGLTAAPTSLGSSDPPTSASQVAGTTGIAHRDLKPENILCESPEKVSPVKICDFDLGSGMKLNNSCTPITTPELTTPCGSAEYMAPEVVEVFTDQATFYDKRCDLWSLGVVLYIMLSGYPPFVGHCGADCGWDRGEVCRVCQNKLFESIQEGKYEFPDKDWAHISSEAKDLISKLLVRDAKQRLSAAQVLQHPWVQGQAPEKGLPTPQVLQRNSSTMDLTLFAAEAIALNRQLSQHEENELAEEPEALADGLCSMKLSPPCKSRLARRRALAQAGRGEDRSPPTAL
Protocol: as §1, §2, §3, §4

MNK-2-alpha = target: T14, MNK-2-alpha (Homo sapiens, UniProt Q9HBH9)
T14 construct: purchased Caliper Life Sciences
Protocol: as §1, §2, §3, §4

MSK1 = target: T15, MSK1 (Homo sapiens, UniProt O75582)
T15 construct: purchased Caliper Life Sciences
Protocol: as §1, §2, §3, §4

MST4 = target: T16, MST4 (Homo sapiens, UniProt Q9P289)
T16 construct: purchased Caliper Life Sciences
T16 sequence (Q9P289 whole entry, species assumed): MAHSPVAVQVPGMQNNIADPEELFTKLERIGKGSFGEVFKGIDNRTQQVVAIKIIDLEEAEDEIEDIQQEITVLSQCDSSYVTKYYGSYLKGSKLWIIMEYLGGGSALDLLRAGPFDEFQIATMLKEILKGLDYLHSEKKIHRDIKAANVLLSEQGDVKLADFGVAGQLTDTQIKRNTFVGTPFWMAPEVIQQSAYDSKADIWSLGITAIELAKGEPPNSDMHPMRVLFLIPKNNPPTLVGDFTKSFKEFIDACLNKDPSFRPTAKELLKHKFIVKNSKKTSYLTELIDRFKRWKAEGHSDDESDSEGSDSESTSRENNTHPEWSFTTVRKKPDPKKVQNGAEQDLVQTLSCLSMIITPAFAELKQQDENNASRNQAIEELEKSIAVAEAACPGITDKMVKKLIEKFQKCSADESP
Protocol: as §1, §2, §3, §4

Nek2a = target: T17, Nek2a (Homo sapiens, UniProt P51955)
T17 construct: purchased Caliper Life Sciences
Protocol: as §1, §2, §3, §4

PAK4 = target: T18, PAK4 (Homo sapiens, UniProt O96013)
T18 construct: purchased Caliper Life Sciences
Protocol: as §1, §2, §3, §4

PIM-2 = target: T19, PIM-2 (Homo sapiens, UniProt Q9P1W9)
T19 construct: purchased Caliper Life Sciences
T19 sequence (Q9P1W9 whole entry, species assumed): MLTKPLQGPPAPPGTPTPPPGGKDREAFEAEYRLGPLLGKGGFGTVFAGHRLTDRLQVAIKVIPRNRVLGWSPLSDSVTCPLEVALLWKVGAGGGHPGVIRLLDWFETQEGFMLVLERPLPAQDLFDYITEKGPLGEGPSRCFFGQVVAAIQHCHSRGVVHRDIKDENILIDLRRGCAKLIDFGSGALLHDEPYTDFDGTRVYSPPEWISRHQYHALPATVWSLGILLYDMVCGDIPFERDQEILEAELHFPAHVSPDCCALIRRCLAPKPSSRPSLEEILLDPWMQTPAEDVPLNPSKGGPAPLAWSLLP
Protocol: as §1, §2, §3, §4

PKA = target: T20, PKA (Homo sapiens, UniProt P17612)
T20 construct: purchased Caliper Life Sciences
Protocol: as §1, §2, §3, §4

PKB-alpha = target: T21, PKB-alpha (Homo sapiens, UniProt P31749)
T21 construct: purchased Caliper Life Sciences
Protocol: as §1, §2, §3, §4

PKD2 = target: T22, PKD2 (Homo sapiens, UniProt Q9BZL6)
T22 construct: purchased Caliper Life Sciences
Protocol: as §1, §2, §3, §4

PRAK = target: T23, PRAK (Homo sapiens, UniProt Q8IW41)
T23 construct: purchased Caliper Life Sciences
T23 sequence (Q8IW41 whole entry, species assumed): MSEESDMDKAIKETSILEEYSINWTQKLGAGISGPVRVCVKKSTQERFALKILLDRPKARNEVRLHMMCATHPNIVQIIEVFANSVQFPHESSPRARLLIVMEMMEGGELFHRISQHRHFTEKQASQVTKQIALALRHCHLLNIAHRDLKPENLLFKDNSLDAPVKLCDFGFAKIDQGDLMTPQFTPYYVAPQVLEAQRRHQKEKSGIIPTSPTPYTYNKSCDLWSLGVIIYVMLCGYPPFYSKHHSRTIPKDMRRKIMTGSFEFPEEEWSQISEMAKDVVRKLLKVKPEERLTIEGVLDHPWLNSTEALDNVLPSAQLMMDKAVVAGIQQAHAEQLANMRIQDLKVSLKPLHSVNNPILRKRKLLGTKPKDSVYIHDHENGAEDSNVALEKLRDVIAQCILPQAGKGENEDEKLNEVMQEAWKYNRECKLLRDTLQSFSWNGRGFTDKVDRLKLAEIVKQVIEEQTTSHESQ
Protocol: as §1, §2, §3, §4

PRK2 = target: T24, PRK2 (Homo sapiens, UniProt Q16513)
T24 construct: purchased Caliper Life Sciences
Protocol: as §1, §2, §3, §4

Pim-1 = target: T25, Pim-1 (Homo sapiens, UniProt P11309)
T25 construct: purchased Caliper Life Sciences
T25 sequence (P11309 whole entry, species assumed): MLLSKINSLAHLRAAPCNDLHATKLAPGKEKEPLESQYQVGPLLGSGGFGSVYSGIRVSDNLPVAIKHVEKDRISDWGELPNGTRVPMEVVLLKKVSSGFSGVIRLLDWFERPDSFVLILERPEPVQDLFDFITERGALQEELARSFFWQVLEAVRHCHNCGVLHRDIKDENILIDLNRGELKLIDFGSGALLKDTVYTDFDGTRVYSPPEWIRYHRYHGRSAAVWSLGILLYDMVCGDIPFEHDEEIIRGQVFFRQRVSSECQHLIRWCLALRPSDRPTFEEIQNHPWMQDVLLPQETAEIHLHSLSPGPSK
Protocol: as §1, §2, §3, §4

S6K1 = target: T26, S6K1 (Homo sapiens, UniProt P23443)
T26 construct: purchased Caliper Life Sciences
T26 sequence (P23443 whole entry, species assumed): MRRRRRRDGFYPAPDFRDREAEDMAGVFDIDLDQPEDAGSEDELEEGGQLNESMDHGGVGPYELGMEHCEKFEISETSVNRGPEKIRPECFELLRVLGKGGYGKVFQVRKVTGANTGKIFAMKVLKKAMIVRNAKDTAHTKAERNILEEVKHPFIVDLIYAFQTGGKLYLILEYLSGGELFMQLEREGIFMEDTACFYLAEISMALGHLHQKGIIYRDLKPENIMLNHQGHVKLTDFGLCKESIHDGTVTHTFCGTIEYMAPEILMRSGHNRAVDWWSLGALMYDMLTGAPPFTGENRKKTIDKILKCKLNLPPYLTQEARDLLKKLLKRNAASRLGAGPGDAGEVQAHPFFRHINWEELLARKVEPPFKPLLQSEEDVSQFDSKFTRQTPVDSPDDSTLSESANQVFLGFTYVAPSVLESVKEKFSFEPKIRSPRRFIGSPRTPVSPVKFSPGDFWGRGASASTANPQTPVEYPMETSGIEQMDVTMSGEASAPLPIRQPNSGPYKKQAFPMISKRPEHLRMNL
Protocol: as §1, §2, §3, §4

SAPK4 = target: T27, SAPK4 (Homo sapiens, UniProt O15264)
T27 construct: purchased Caliper Life Sciences
Protocol: as §1, §2, §3, §4

SRC = target: T28, SRC (Homo sapiens, UniProt P12931)
T28 construct: purchased Caliper Life Sciences
T28 sequence (P12931 whole entry, species assumed): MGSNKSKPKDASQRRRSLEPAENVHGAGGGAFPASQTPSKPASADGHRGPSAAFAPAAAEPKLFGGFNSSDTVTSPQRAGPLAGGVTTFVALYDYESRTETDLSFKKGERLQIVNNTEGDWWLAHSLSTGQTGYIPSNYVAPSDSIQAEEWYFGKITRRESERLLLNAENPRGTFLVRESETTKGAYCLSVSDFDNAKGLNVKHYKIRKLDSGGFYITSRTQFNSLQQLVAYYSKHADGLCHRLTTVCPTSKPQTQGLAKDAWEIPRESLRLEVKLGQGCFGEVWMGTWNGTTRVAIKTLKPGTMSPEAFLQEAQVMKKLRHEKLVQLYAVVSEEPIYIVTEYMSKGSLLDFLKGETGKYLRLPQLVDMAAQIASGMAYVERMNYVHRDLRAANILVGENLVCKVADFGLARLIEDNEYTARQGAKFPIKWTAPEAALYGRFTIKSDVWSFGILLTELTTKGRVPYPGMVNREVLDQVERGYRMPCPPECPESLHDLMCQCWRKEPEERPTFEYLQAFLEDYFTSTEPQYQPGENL
Protocol: as §1, §2, §3, §4

Syk = target: T29, Syk (Homo sapiens, UniProt P43405)
T29 construct: purchased Caliper Life Sciences
Protocol: as §1, §2, §3, §4

TBK1 = target: T30, TBK1 (Homo sapiens, UniProt Q9UHD2)
T30 construct: purchased Caliper Life Sciences
T30 sequence (Q9UHD2 whole entry, species assumed): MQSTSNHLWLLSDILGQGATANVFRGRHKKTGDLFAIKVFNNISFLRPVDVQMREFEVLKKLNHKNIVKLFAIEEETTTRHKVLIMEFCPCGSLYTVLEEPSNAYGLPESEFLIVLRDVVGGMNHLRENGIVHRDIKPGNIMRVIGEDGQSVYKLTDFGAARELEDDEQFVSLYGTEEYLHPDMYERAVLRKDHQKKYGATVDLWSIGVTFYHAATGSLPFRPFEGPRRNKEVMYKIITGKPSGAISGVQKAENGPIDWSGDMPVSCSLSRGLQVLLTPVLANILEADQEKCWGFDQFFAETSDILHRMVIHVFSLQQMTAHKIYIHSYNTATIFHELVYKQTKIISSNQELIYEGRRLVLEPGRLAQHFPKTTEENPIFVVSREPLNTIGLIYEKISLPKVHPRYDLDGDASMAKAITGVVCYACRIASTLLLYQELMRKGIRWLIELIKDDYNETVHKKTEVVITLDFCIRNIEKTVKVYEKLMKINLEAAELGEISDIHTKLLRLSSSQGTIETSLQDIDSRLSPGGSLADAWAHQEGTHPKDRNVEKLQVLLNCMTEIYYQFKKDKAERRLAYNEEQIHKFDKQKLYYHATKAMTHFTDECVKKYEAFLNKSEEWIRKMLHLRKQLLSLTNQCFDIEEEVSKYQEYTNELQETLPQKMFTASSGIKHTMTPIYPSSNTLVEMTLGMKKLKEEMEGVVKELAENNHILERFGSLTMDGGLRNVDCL
Protocol: as §1, §2, §3, §4

VEGFR = system: VEGFR
Protocol: as §1, §2, §3, §4

smMLCK = system: smMLCK
Protocol: as §1, §2, §3, §4

| Structure (SMILES) | % inhibition AMPK (AMPK) [%] | % inhibition CAMKI (CAMKI) [%] | % inhibition CAMKKb (CAMKKb) [%] | % inhibition CDK2/cyclin A (CDK2/cyclin A) [%] | % inhibition CHK2 (CHK2) [%] | % inhibition CK2 (CK2) [%] | inhibition at 1 µM (EphA2) [%] | inhibition at 1 µM (IKK-beta) [%] | inhibition at 1 µM (IKK-epsilon) [%] | inhibition at 1 µM (IR) [%] | inhibition at 1 µM (IRR) [%] | inhibition at 1 µM (JNK1-alpha-1) [%] | % inhibition MAPK1 (MAPK1) [%] | % inhibition MAPK2 (MAPK2) [%] | % inhibition MKK1 (MKK1) [%] | % inhibition MNK-1 (MNK-1) [%] | % inhibition MNK-2-alpha (MNK-2-alpha) [%] | % inhibition MSK1 (MSK1) [%] | % inhibition MST4 (MST4) [%] | % inhibition Nek2a (Nek2a) [%] | also measured |
| --- | --- | --- | --- | --- | --- | --- | --- | --- | --- | --- | --- | --- | --- | --- | --- | --- | --- | --- | --- | --- | --- |
| Fc1cnc2nc1NC1CCCC(C1)OC/C=C\COc1cccc(c1)N2 (single isomer, unassigned) [Example 33, (16Z)-6-fluoro-14,19-dioxa-2,4,8,26-tetraazatetracyclo[18.3.1.1˜3,7˜0.1˜9,13˜]hexacosa-1(24),3(26),4,6,16,20,22-heptaene] | 76 | 93 | 81 | 60 | 77 | 96 | 81 | 78 | 91 | 67 | 69 | 75 | 91 | 79 | 71 | 95 | 81 | 96 | 89 | 82 | % inhibition PAK4 (PAK4): 81%; % inhibition PIM-2 (PIM-2): 85%; % inhibition PKA (PKA): 82%; % inhibition PKB-alpha (PKB-alpha): 85%; % inhibition PKD2 (PKD2): 78%; % inhibition PRAK (PRAK): 80%; inhibition at 1 µM (PRK2): 97%; % inhibition Pim-1 (Pim-1): 65%; inhibition at 1 µM (S6K1): 74%; inhibition at 1 µM (SAPK4): 79%; inhibition at 1 µM (SRC): 58%; inhibition at 1 µM (Syk): 84%; inhibition at 1 µM (TBK1): 97%; % inhibition VEGFR (VEGFR): 49%; % inhibition smMLCK (smMLCK): 92% |
| NC(=O)[C@H]1[C@H]2C[C@H]3[C@H]1Nc1nc(ncc1F)Nc1cccc(c1)CSS[C@@H]3C2 [Example 10] | 38 | 73 | 73 | 94 | 12 | 91 | 25 | 82 | 75 | 37 | 72 | 14 | 78 | 90 | 13 | 98 | 82 | 77 | 59 | 66 | % inhibition PAK4 (PAK4): 38%; % inhibition PIM-2 (PIM-2): 70%; % inhibition PKA (PKA): 72%; % inhibition PKB-alpha (PKB-alpha): 93%; % inhibition PKD2 (PKD2): 73%; % inhibition PRAK (PRAK): 84%; inhibition at 1 µM (PRK2): 43%; % inhibition Pim-1 (Pim-1): 61%; inhibition at 1 µM (S6K1): 94%; inhibition at 1 µM (SAPK4): 44%; inhibition at 1 µM (SRC): 14%; inhibition at 1 µM (Syk): 52%; inhibition at 1 µM (TBK1): 100%; % inhibition VEGFR (VEGFR): 15%; % inhibition smMLCK (smMLCK): 39% |
